With `O=C(NCC1(c2ccc(Cl)nc2Cl)CC1)c1cccnc1Cl` [A.122, 2-Chloro-N-[1-(2,6-dichloro-pyridin-3-yl)-cyclopropylmethyl]nicotinamide] the melting point was 206 to 207 °C.
